Assay results from the supplement of paper PMC10307832.

What was measured:
Test in all cases: relative viability (nuclei count vs DMSO), 5 days (fraction); higher = more cells survive
Afatinib + Trametinib = compound: CN(C)C/C=C/C(=O)Nc1cc2c(Nc3ccc(F)c(Cl)c3)ncnc2cc1O[C@H]1CCOC1 [Afatinib] + CC(=O)Nc1cccc(-n2c(=O)n(C3CC3)c(=O)c3c(Nc4ccc(I)cc4F)n(C)c(=O)c(C)c32)c1 [Trametinib] (partner 0.02 µM)
Outline: (§1)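 Five library-drug doses in √10 steps were combined with a fixed anchor-drug dose, or a single drug was given alone, by pin tool to lung cancer cell lines in 1536-well plates the day after seeding. Nuclei were stained and counted after 5 days. Relative viability is the nuclei count in treated wells over that in vehicle wells, taken as the median of duplicate plates.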

Afatinib + OSI-027 = compound: CN(C)C/C=C/C(=O)Nc1cc2c(Nc3ccc(F)c(Cl)c3)ncnc2cc1O[C@H]1CCOC1 [Afatinib] + COc1cccc2cc(-c3nc([C@H]4CC[C@H](C(=O)O)CC4)n4ncnc(N)c34)[nH]c12 [OSI-027] (partner 0.5 µM)
Outline: as §1

Afatinib + Lapatinib = compound: CN(C)C/C=C/C(=O)Nc1cc2c(Nc3ccc(F)c(Cl)c3)ncnc2cc1O[C@H]1CCOC1 [Afatinib] + CS(=O)(=O)CCNCc1ccc(-c2ccc3ncnc(Nc4ccc(OCc5cccc(F)c5)c(Cl)c4)c3c2)o1 [Lapatinib] (partner 2 µM)
Outline: as §1

Afatinib + Linsitinib = compound: CN(C)C/C=C/C(=O)Nc1cc2c(Nc3ccc(F)c(Cl)c3)ncnc2cc1O[C@H]1CCOC1 [Afatinib] + C[C@]1(O)C[C@@H](c2nc(-c3ccc4ccc(-c5ccccc5)nc4c3)c3c(N)nccn32)C1 [Linsitinib] (partner 1 µM)
Outline: as §1

Cell Line	relative viability (Afatinib + Trametinib; first compound 0.005 µM)	relative viability (Afatinib + Trametinib; first compound 0.01581 µM)	relative viability (Afatinib + Trametinib; first compound 0.05 µM)	relative viability (Afatinib + Trametinib; first compound 0.1581 µM)	relative viability (Afatinib + Trametinib; first compound 0.5 µM)	relative viability (Afatinib + OSI-027; first compound 0.005 µM)	relative viability (Afatinib + OSI-027; first compound 0.01581 µM)	relative viability (Afatinib + OSI-027; first compound 0.05 µM)	relative viability (Afatinib + OSI-027; first compound 0.1581 µM)	relative viability (Afatinib + OSI-027; first compound 0.5 µM)	relative viability (Afatinib + Lapatinib; first compound 0.005 µM)	relative viability (Afatinib + Lapatinib; first compound 0.01581 µM)	relative viability (Afatinib + Lapatinib; first compound 0.05 µM)	relative viability (Afatinib + Lapatinib; first compound 0.1581 µM)	relative viability (Afatinib + Lapatinib; first compound 0.5 µM)	relative viability (Afatinib + Linsitinib; first compound 0.005 µM)	relative viability (Afatinib + Linsitinib; first compound 0.01581 µM)	relative viability (Afatinib + Linsitinib; first compound 0.05 µM)	relative viability (Afatinib + Linsitinib; first compound 0.1581 µM)	relative viability (Afatinib + Linsitinib; first compound 0.5 µM)
HCC-78	0.788	0.677	0.723	0.559	0.698	0.443	0.326	0.331	0.317	0.283	0.838	0.661	0.844	0.659	0.883	0.53	0.482	0.436	0.413	0.395
HCC-366	0.361	0.247	0.353	0.293	0.29	0.947	0.965	0.969	0.824	0.788	1.03	1.06	1.03	1.05	1.02	0.764	0.669	0.56	0.541	0.618
HCC-827	0.16	0.165	0.179	0.161	0.15	0.159	0.122	0.153	0.153	0.141	0.0458	0.174	0.186	0.186	0.198	0.202	0.163	0.18	0.172	0.176
HOP-62	0.354	0.38	0.419	0.333	0.378	0.947	0.835	0.826	0.933	0.827	1.12	1.12	1.11	1.03	1.09	1.03	1.13	1.2	1.03	1.04
IA-LM											0.935	0.867	0.753	0.828	0.708	0.67	0.713	0.502	0.571	0.601
LC-2-ad	0.954	0.914	0.92	0.832	0.87	0.871	0.67	0.823	0.575	0.622	1.07	0.991	1.07	0.961	0.925	0.935	0.817	0.794	0.696	0.682
LCLC-97TM1	0.17	0.215		0.153	0.171	0.561	0.502	0.629	0.43	0.457	1.11	0.837	1.11	0.688	0.568	0.176	0.179	0.167	0.156	0.205
LCLC-103H	0.602	0.698	0.736	0.634	0.697	0.48	0.46	0.54	0.482	0.479						1.09	0.943	1.02	0.99	0.99
LK-2	0.908	0.846	0.633	0.78	0.73	0.213	0.188	0.194	0.156	0.216	1.13	0.787	0.846	0.851	1.01	0.6	0.589	0.742	0.478	0.666
LOU-NH91	0.718	0.683	0.718	0.671	0.727	0.491	0.404	0.477	0.4	0.518	0.76	0.754	0.806	0.736	0.683	0.527	0.551	0.58	0.534	0.591
LU99A	0.635	0.569	0.589	0.509	0.552	0.294	0.297	0.295	0.287	0.292	1.08	1.07	1.02	0.979	0.871	0.509	0.562	0.488	0.453	0.477
NCI-H441	0.536	0.347	0.396	0.325	0.384	0.677	0.582	0.499	0.481	0.426						0.529	0.523	0.516	0.503	0.425
NCI-H522	0.58	0.781	0.79	0.667	0.545	0.723	0.594	0.631	0.544	0.557										
NCI-H1299											0.98	0.946	0.973	0.969	0.96	0.978	0.951	0.987	1.06	0.97
NCI-H1563						0.729	0.739	0.737	0.709	0.746	0.965	0.874	1.08	1.04	0.854	1.32	1.14	1.27	1.06	1.21
NCI-H1648	0.423	0.462	0.316	0.287	0.246	0.253	0.266	0.298	0.219	0.27										
NCI-H1650	0.431	0.357	0.475	0.484	0.365	0.476		0.557	0.439	0.397	0.903		1.09	0.772	0.598					
NCI-H1703											1.76	1.02	1.08	0.921	0.753	0.49		0.651	0.608	0.585
NCI-H2170	0.892	0.853	0.615	0.169	0.156	0.67	0.5	0.293	0.192	0.191	0.297	0.283	0.268	0.269	0.315					
NCI-H2342	0.761	0.723	0.726	0.74	0.672	0.669	0.539	0.546	0.558	0.485										
